Tests used:
E. coli [1] = assay: Kinetics of bactericidal effect (time-kill curve), syringes technique; format: cell-based, Escherichia coli
Method: (§1) Syringes technique: Bacteria cells were incubated at room temperature under anaerobic conditions in LB Bruce growth substance syringes. To ensure anaerobic conditions, Argon gas (UHP) was bubbled through a sterile filter into a syringe filled with a growth substance. Cu^1+ was formed in situ, the process was started with de-aerating the aqueous solutions containing a mixture of CuSO4 as the source for Cu^2+ ions, metallic copper and Acetonitrile as a stabilizing ligand, prior to microorganisms insertion, according to the following reaction:
(§2) Reference bacteria were incubated under the same condition in a growth substance containing: Metallic copper (4×2×0.1 cm), Acetonitrile, CuSO4 or AgNO3.
(§3) Bacteria count was measured at time intervals using a series of dilutions, and colonies count on LB Agar was incubated at 37° C.
Because of the chemical similarity of copper and silver as well as their clinical use as antibacterial agents, their antibacterial effect over time was compared. The survival of test bacteria in each syringe was sampled in time intervals of 1, 20, 40 and 85 hours from inoculation. Time-kill curve was constructed by plotting the viable cell count of bacteria (Δ log 10 cfu/ml) over time (FIG. 1).

[2] = system: Escherichia coli strain MG1655; assay: Disc diffusion antibiotic sensitivity test; format: cell-based; conditions: for Estimate of the sterile area beyond the disk: aerobic, 37° C., 24 h incubation, 6 mm disk
Method: 1. Introduction: • The antibacterial effect was measured by an agar disk diffusion method. Escherichia coli strain MG1655 was used as a model organism. Whatman's 6 mm disks were used. The incubation of Petri dishes (with disks) was done in aerobic conditions, at 37° C. After 24 h incubation, the radiuses of sterile zones on agar were measured.
2.1 Preparation of bacterial suspension • 100 μl of bacterial suspension (containing 10^4-10^5 bacterial cells per plate) was used for testing. Cells of E. coli MG1655 were grown overnight as a starter on LB (Luria broth) media at 37° C. with a shaker. After 12-18 hhours incubation, 100 μL suspension were added to 9.9 mL of fresh LB media. Bacterial cells designated for testing were grown in fresh LB at 37° C. with a shaker for 2-3 h to final OD (600 nm) 0.2-0.4. This cell suspension was diluted by a factor of 100 using 0.9% NaCl, and 100 μL of the diluted suspension was distributed on agar surface before adding a disk.
2.2 Preparation of Petri dishes • LB agar was prepared according to a standard procedure, autoclaved and stored afterwards up to 3 h at 55° C. The needed substances (like ascorbic acid) were added into agar before pouring into dishes. 15 ml agar was added to each 90 mm Petri dish. Dishes were dried for at least 1 h in a biosafety cabinet by sterile air flow.
2.3 Formulation application • To the preliminary dried dishes (a described in 2.2) a freshly prepared bacterial culture was added (as described in 2.1). Immediately after absorption of the suspension into the agar, a disk was placed at the center of the dish. In case where metallic copper was tested, it was placed first in the form of a small circular wire at the dish center and pressed into the agar, and covered by a disk afterwards. 10 μl of a Cu^2+ solution was placed on the disk.
2.4 Measurement of the sterile zone size • All dishes after 24 h incubation (as described in 2.1) were photographed and the images are analyzed. The absolute size of the sterile zones was estimated in comparison with the disk size (6 mm).
The results were presented as sterile area in mm^2 (FIG. 5 and Table 2) or as radiuses in mm (FIGS. 7-10) of the sterile zones on agar.

E. coli MG 1655 = assay: Petri dish technique, LB agar with ascorbic acid and CuSO4 covered by oil; format: cell-based, Escherichia coli; conditions: for Vitality of E. coli MG 1655: 24 h
Method: (§4) As control groups, bacteria were incubated under the same conditions without ascorbic acid, or without CuSO4. In this series of experiments ascorbic acid acted as the reducing agent according to the following reaction: 2Cu^2++ascorbic acid→2Cu^++dehydro ascorbic acid (2) The viability of bacteria was detected by the presence or absence of colonies.
The experiment was repeated using a different reducing agent (ascorbic acid instead of metal copper with acetonitrile) and different technique of growing bacteria on Petri dishes with LB agar. The ascorbic acid embedded in the agar reduces copper as was shown in Equation 2.

Staphylococcus aureus = assay: Growth kinetics in anaerobic conditions, syringe technique; format: cell-based
Method: as §1, §2, §3
When comparing with FIG. 2 it seems that the difference between the effect of Cu^1+ and Cu^2+ is more pronounced in gram (+) bacteria than in gram(−).

S. aureus = assay: Petri dish technique, LB agar with ascorbic acid; format: cell-based, Staphylococcus aureus; conditions: 24 h
Method: as §4, with “Petri dish technique: Bacteria were incubated at 37° C. in Petri dish with LB Agar containing 20 mM ascorbic acid and 0.05-3.5 mM CuSO4 covered by oil, to prevent air oxygen penetration. As” for “As”
The MIC of Cu^1+ is measured by using Petri dishes with LB agar. The ascorbic acid embedded in the agar reduces copper as was shown in Equation 2.

E. coli [3] = assay: Syringes technique, anaerobic incubation of E. coli with copper ions (vitality / MIC); format: cell-based, Escherichia coli
Method: as §1
One must notice that each Cu^2+ results in two Cu^1+ ions.
as §2, §3
The vitality of Escherichia coli, Staphylococcus aureus (bacteria) and Saccharomyces cerevisiae (yeast) was tested in anaerobic conditions using syringe technique and Petri dish technique.
The MIC of Cu^1+ and Cu^2+ was measured by using four syringes with decreasing concentration of the copper ions from 8 to 2 mM.
MIC of Cu^1+ found to be around 4 mM where the MIC of Cu^2+ was between 6 mM and 8 mM.

Saccharomyces cerevisiae = assay: Viable cell count over time, syringes technique; format: cell-based
[4] = 4 mM ion, 24 h incubation, 0.5% (v/v) acetonitrile

[Ag+] [Ag^1+, reference compound]
viable cells (E. coli [1]; after 85 hours): no viable cells were found | Estimate of the sterile area beyond the disk [2]: 27.1 mm^2

O=C1O[C@H]([C@@H](O)CO)C(O)=C1O [Ascorbic acid, ascorbic acid, reference compound]
Vitality of E. coli MG 1655 (E. coli MG 1655; Ascorbic acid 20 mM, CuSO4 0 mM): ++ (a fully covered plate, estimated as 2×10^7 cfu/ml)

O=S(=O)([O-])[O-].[Cu+2] [CuSO4]
Vitality of E. coli MG 1655 (E. coli MG 1655; Ascorbic acid 0 mM, CuSO4 3.0 mM): ++ (a fully covered plate, estimated as 2×10^7 cfu/ml) | Vitality of E. coli MG 1655 (E. coli MG 1655; Ascorbic acid 0 mM, CuSO4 4.0 mM): − | Vitality of E. coli MG 1655 (E. coli MG 1655; Ascorbic acid 20 mM, CuSO4 0.01 mM): ++ (a fully covered plate, estimated as 2×10^7 cfu/ml) | Vitality of E. coli MG 1655 (E. coli MG 1655; Ascorbic acid 20 mM, CuSO4 0.05 mM): −

[Cu+] [Cu^1+]
bacteriostatic effect (Staphylococcus aureus): very little bacteriostatic effect | incubation time to depletion of bacterial count (Staphylococcus aureus): ≤ 1 h | bactericidal effect of reduced copper ions relative to Cu^2+ (E. coli MG 1655; 24 h after incubation): eight times higher | antibacterial potency compared with 8 mM and 16 mM Ag^+ (E. coli [1]; 8 mM, 1 h incubation): more potent antibacterial agent | viable bacteria cells (E. coli [1]; 20 hours after inoculation): no viable bacteria cell was found at all | reduction of the initial bacteria inoculums (E. coli [1]; after 1 h of incubation, anaerobic): 7 log cfu/ml | live bacteria remaining in the syringe (E. coli [1]; after 85 hours): 1 log cfu/ml | S. aureus vitality (S. aureus; 0.05 mM with ascorbic acid 20 mM): ++ (a fully covered plate, estimated as 2×10^7 cfu/ml) | S. aureus vitality, number of colonies (S. aureus; 0.1 mM with ascorbic acid 20 mM): 45 | S. aureus vitality (S. aureus; 0.3 mM with ascorbic acid 20 mM): − | presence or absence of E. coli colonies (E. coli [3]; 2 mM ion, 24 h incubation, 0.5% (v/v) acetonitrile): ++ (a fully covered plate, estimated as 2×10^7 cfu/ml) | number of colonies on the plate (E. coli [3]; [4]): 107 colonies | presence or absence of E. coli colonies (E. coli [3]; [4]): ++ (a fully covered plate, estimated as 2×10^7 cfu/ml) | presence or absence of E. coli colonies (E. coli [3]; 6 mM ion, 24 h incubation, 0.5% (v/v) acetonitrile): − | presence or absence of E. coli colonies (E. coli [3]; 6 mM ion, 24 h incubation, 0.5% (v/v) acetonitrile, listed as Cu^+2): + (partially covered plate but still uncountable, estimated as 1×10^4 cfu/ml) | presence or absence of E. coli colonies (E. coli [3]; 8 mM ion, 24 h incubation, 0.5% (v/v) acetonitrile): − | MIC (E. coli [3]; 24 h incubation, 0.5% (v/v) acetonitrile, syringes): around 4 mM | susceptibility of the yeast compared with the bacteria studied (Saccharomyces cerevisiae): more susceptible | Estimate of the sterile area beyond the disk [2]: 359.3 mm^2 | Estimate of the sterile area beyond the disk ([2]; listed as Cu^2+): 25.9 mm^2 | Estimate of the sterile area beyond the disk ([2]; listed as Cu^+2): 25.9 mm^2 | improvement in the biocidal effect compared with Ag^1+ and Cu^2+ ([2]; disk diffusion method): more than 10 times

CC#N [acetonitrile]
minimal effective concentration as stabilizing ligand (E. coli [3]; preliminary tests, equals 0.5% V/V): 0.1 M

copper(II) gluconate [copper (II) gluconate]
minimal recommended concentration of copper (II) gluconate ([2]; in emulsifying base ointment with ascorbyl palmitate and 2% copper powder): 1.25 % w/w

Source: patent US11590164B2, “Topical antimicrobial formulations containing monovalent copper ions and systems for generating monovalent copper ions” (priority 2016, dated 2023)
